This note sets out measurements from ChEMBL document CHEMBL1201862, “PubChem BioAssay data set” (2004).

Molecules are shown by their SMILES.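 Five compound concentrations were applied to cells in 96-well plates for 48 hours; endpoints were derived by simple linear interpolation of the resulting dose-response curve. GI50 is the concentration that inhibits growth by half.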 Calls of active or inactive are those of the source. Cut-off read from the data, not from the text of the source: active = GI50 up to about 1.1 µM and inactive = higher. Residues, ends and D or L forms follow the SMILES beside them. *: point of attachment. Boc = CC(C)(C)OC(=O)*

Among the test systems are 786-0; CAKI-1; COLO 205; DU-145; HCT-116; HT-29; Hs-578T; MDA-MB-435; Malme-3M; NCI-H23; NCI/ADR-RES; OVCAR-4; SK-MEL-2; SNB-75; U-251; UACC-257; HOP-92; RXF 393.
Holding throughout (assay): NCI-60 cell line screen, 48 h

In the case of `Nc1c(C(=O)O)nnc2cc(Cl)c(Cl)cc12`, the GI50 with 786-0, in the assay with CAKI-1, in the assay with COLO 205, with DU-145, in the assay on HCT-116 and with HT-29 was > 100 µM (inactive) throughout. The GI50 in the assay with Hs-578T, in the assay on MDA-MB-435, in the assay with Malme-3M, with NCI-H23, in the assay with NCI/ADR-RES and in the assay on OVCAR-4 was > 100 µM (inactive) in each case. The GI50 with SK-MEL-2, in the assay on SNB-75, in the assay on U-251 and in the assay on UACC-257 was > 100 µM (inactive) in each case.

Take `COc1ccc(OC)c2sc(N3C(=O)/C(=C/c4ccc(SC)cc4)N=C3c3ccccc3)nc12`: the GI50 with 786-0 was 43.3 µM (inactive); in the assay with CAKI-1 it was 96.2 µM (inactive); in the assay on COLO 205 it was 58.5 µM (inactive); in the assay with DU-145, 39.9 µM (inactive); with HCT-116 it was 18.7 µM (inactive); in the assay with HOP-92 it was 55.7 µM (inactive). For the same compound, the GI50 is 23.1 µM (inactive) in the assay with HT-29; 17.7 µM (inactive) in the assay on Hs-578T; 17.2 µM (inactive) with MDA-MB-435; 29.3 µM (inactive) in the assay on NCI/ADR-RES; 28.5 µM (inactive) in the assay on OVCAR-4; 20.8 µM (inactive) with SK-MEL-2. The GI50 in the assay on SNB-75 was 18.3 µM (inactive); in the assay on U-251, 17.5 µM (inactive); with UACC-257, 17.3 µM (inactive).

Consider `COc1ccc(C2SCC(=O)N2c2ccc(-c3ccc(-n4c(-c5ccccc5)nc5ccccc5c4=O)cc3)cc2)cc1` (stereo not drawn), for which the GI50 in the assay with 786-0 is 36.1 µM (inactive); with CAKI-1, 95.3 µM (inactive); in the assay on COLO 205, 39 µM (inactive); with DU-145, 42 µM (inactive); with HCT-116, 57.9 µM (inactive); in the assay on HOP-92, 15.7 µM (inactive). For the same compound, the GI50 is 12.7 µM (inactive) with HT-29; 25.9 µM (inactive) in the assay with Hs-578T; 49.7 µM (inactive) in the assay with MDA-MB-435; 48.2 µM (inactive) with Malme-3M; 68.9 µM (inactive) with NCI-H23; 96.2 µM (inactive) with NCI/ADR-RES. Also, the GI50 in the assay with OVCAR-4 was 42.4 µM (inactive); in the assay with SK-MEL-2, 26.6 µM (inactive); in the assay with U-251, 48.5 µM (inactive); with UACC-257 it was > 100 µM (inactive).

For `Cc1cn(C2CC(COCc3ccccc3)N(CCO[Si](C)(C)C(C)(C)C)O2)c(=O)[nH]c1=O` (stereo not drawn), the GI50 in the assay with 786-0 is 27.9 µM (inactive); in the assay with CAKI-1, 18.5 µM (inactive); in the assay with COLO 205, 15.1 µM (inactive); in the assay on DU-145 it was 15.8 µM (inactive); in the assay with HCT-116, 16.8 µM (inactive); in the assay on HOP-92, 8.81 µM (inactive). For the same compound, the GI50 in the assay with HT-29 is 15.4 µM (inactive); with MDA-MB-435 it was 13 µM (inactive); in the assay with Malme-3M it was 18.2 µM (inactive); in the assay on NCI-H23, 16.2 µM (inactive); with NCI/ADR-RES, 14.3 µM (inactive); with OVCAR-4, 17.9 µM (inactive). Besides, the GI50 with RXF 393 is 15.5 µM (inactive); with SK-MEL-2, 16.4 µM (inactive); in the assay with U-251, 19.2 µM (inactive).

As for `CN(C)c1ccc(C=C2C(=O)N(c3ccccc3)N(c3ccccc3)C2=O)cc1`, the GI50 in the assay on 786-0 is 71.1 µM (inactive); with COLO 205, > 100 µM (inactive); in the assay with DU-145, > 100 µM (inactive); in the assay with HCT-116, > 100 µM (inactive); in the assay on HOP-92 it was 15.6 µM (inactive); with HT-29 it was 72.8 µM (inactive). The GI50 in the assay on Hs-578T is 60.8 µM (inactive); in the assay on MDA-MB-435, 81.1 µM (inactive); in the assay with Malme-3M, > 100 µM (inactive); in the assay with NCI-H23, > 100 µM (inactive); in the assay on SK-MEL-2 it was > 100 µM (inactive); with SNB-75 it was 53.7 µM (inactive). In addition, the GI50 in the assay on U-251 is 37 µM (inactive).

For the compound `CSC1=NN=C(SC)NN1`, the GI50 in the assay on 786-0 is 0.182 µM (active); in the assay with CAKI-1, 0.173 µM (active); in the assay with COLO 205 it was 0.198 µM (active); with DU-145, 0.202 µM (active); in the assay on HCT-116 it was 0.167 µM (active); with HOP-92 it was 0.173 µM (active). The GI50 was 0.173 µM (active) in the assay with HT-29; 0.161 µM (active) in the assay with Hs-578T; 0.182 µM (active) with MDA-MB-435; 0.151 µM (active) in the assay with Malme-3M; 0.285 µM (active) with NCI-H23; 0.3 µM (active) in the assay with NCI/ADR-RES. For the same compound, the GI50 in the assay with OVCAR-4 is 0.172 µM (active); in the assay with SK-MEL-2, 0.145 µM (active); in the assay with U-251, 0.18 µM (active); in the assay on UACC-257, 0.131 µM (active).

Turning to `NS(=O)(=O)c1ccc2c(c1)OCCOCCOCCOCCO2`, the GI50 in the assay on 786-0, in the assay on CAKI-1, with COLO 205, in the assay on DU-145, in the assay on HCT-116 and with HT-29 was > 100 µM (inactive) in each case. Further, the GI50 with Hs-578T, in the assay on MDA-MB-435, in the assay on Malme-3M, in the assay with NCI-H23, in the assay on SNB-75 and in the assay with UACC-257 was > 100 µM (inactive) in each case.

Consider `CC(C)(C)OC(=O)NC(Cc1ccc(O)cc1)C(=O)NC(CCCCN)C(=O)O` (stereo not drawn) (Boc-Tyr-Lys-OH; configuration not given here), for which the GI50 with 786-0 was 28.4 µM (inactive); in the assay with CAKI-1, > 10 µM (inactive); in the assay on DU-145, 27 µM (inactive); in the assay on HCT-116 it was 16.9 µM (inactive); in the assay on HT-29 it was 47.4 µM (inactive); in the assay on MDA-MB-435, 20.7 µM (inactive). The GI50 is 28.1 µM (inactive) in the assay on Malme-3M; 18.5 µM (inactive) in the assay with NCI-H23; 17.5 µM (inactive) in the assay with OVCAR-4; 20.2 µM (inactive) with SK-MEL-2; 31.6 µM (inactive) with SNB-75; 20.9 µM (inactive) in the assay on U-251. Further, the GI50 in the assay with UACC-257 is 27.5 µM (inactive).

For the compound `C[n+]1c(-c2ccc(/C=N/NC(=O)C(=O)N/N=C/c3ccc(-c4cn5ccsc5[n+]4C)cc3)cc2)cn2ccsc21`, the GI50 was > 100 µM (inactive) in the assay with 786-0; > 100 µM (inactive) in the assay on COLO 205; 92.5 µM (inactive) in the assay on HCT-116; > 100 µM (inactive) with HT-29; > 100 µM (inactive) with Hs-578T; 48.2 µM (inactive) in the assay with MDA-MB-435. Besides, the GI50 in the assay on NCI/ADR-RES, with OVCAR-4, with SNB-75, in the assay on U-251 and in the assay with UACC-257 was > 100 µM (inactive) in each case.

In the case of `COC(=O)[C@@H]1N2C(=S)N(c3ccccc3)C(=O)[C@H]2SC1(C)C`, the GI50 in the assay on 786-0 is > 100 µM (inactive); with CAKI-1 it was > 100 µM (inactive); in the assay with COLO 205, > 100 µM (inactive); in the assay with DU-145, > 100 µM (inactive); in the assay with HCT-116 it was > 100 µM (inactive); in the assay with HOP-92, 55.6 µM (inactive). The GI50 in the assay with HT-29, in the assay on MDA-MB-435, in the assay with NCI-H23, with NCI/ADR-RES, in the assay with OVCAR-4 and with RXF 393 was > 100 µM (inactive) throughout. Besides, the GI50 in the assay on SK-MEL-2, with SNB-75, in the assay on U-251 and in the assay on UACC-257 was > 100 µM (inactive) each time.
